Format in all cases: cell-based
In assay [1] the target is T1, GAL2R (Homo sapiens, UniProt O43603).
T1 sequence (O43603 1-387): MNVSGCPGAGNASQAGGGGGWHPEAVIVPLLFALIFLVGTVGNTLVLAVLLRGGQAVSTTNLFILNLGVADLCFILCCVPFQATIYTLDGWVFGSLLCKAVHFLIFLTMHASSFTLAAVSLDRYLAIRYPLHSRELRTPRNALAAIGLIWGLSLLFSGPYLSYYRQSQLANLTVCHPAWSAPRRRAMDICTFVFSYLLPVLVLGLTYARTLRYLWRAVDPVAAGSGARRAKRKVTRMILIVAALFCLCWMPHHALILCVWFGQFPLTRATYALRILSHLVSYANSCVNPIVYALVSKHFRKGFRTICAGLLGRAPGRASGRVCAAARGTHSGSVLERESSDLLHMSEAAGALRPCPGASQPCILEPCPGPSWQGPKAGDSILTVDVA
The experiment in a line: Fluo-4 Direct calcium assay (Ca efflux) in HEK293 cells overexpressing GAL2R. Conditions: Table 3; HEK293 cells stably overexpressing GAL2R; Fluo-4, from 10 µM; (average) ratio, (n) in cell = number of assays; NA = ratio above 1000. How it is done:
Calcium efflux was measured by using a Fluo-4 Direct Calcium Assay purchased from Thermo Fisher Scientific. HEK293 cells with stable overexpression of GAL2R (HEKR2) (kindly provided by Harald Dargatz, Molecular, Cellular and Pharmacobiology Section, Institute of Pharmaceutical Biology, University of Bonn, 53,115 Bonn, Germany) were used for analysis of the lanthipeptides. HEKR2 cells were seeded in a 96-well plate and grown overnight in DMEM supplemented with 10% FBS, 1% penicillin–streptomycin, 100 µg/ml Normocin, and 500 µg/ml G418 at 37 °C, 5% CO2 in a humidified incubator.
The next day, when the cells were nearly confluent, an equal amount of 2 × Fluo-4 Direct™ calcium reagent loading solution, containing 5 mM probenecid, was added to the wells, and the plate was incubated for 1 h at 37 °C. A serial 3 × dilution of the agonist compound in water was made, and 10 µl of the serial dilutions was applied to the cells in duplicate. The starting concentration of agonist in the assay was 10 µM. After 1–2 h of incubation at room temperature, the fluorescence was measured with excitation at 485/20 nm and emission at 528/20 nm with a Synergy HT Biotek reader.

For assay [2], the target named is T2, GAL1R (Homo sapiens, UniProt P47211).
T2 sequence (P47211 1-349): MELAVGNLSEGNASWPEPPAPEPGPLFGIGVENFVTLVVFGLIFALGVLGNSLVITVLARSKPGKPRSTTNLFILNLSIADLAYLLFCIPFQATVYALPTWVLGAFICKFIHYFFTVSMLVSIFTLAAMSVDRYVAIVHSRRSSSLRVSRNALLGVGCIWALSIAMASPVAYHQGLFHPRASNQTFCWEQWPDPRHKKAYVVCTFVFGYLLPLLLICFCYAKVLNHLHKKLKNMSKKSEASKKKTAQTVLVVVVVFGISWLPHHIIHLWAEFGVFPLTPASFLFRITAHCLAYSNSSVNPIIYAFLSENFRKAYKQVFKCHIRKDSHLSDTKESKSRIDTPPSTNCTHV
The experiment in a line: PathHunter eXpress β-arrestin recruitment assay, GAL1R. Also noted: expressed in transfected cells. Conditions: Table 3; CHO-K1 cells co-expressing GAL1R and β-arrestin 2; 10 µM to 5 nM; (average) ratio, (n) in cell = number of assays; NA = ratio above 1000. As for the experimental part:
(§1) To evaluate the ability of lanthipeptides to recruit ß-arrestins via GAL1R or via GAL2R, we used the PathHunter® eXpress GAL1R, CHO-K1, β-arrestin GPCR Assay and the PathHunter® eXpress GAL2R, CHO-K1, β-arrestin, GPCR Assay from Eurofins-DiscoverX. The assays were performed according to the manufacturer’s instructions. Briefly, for one assay, CHO-K1 cells co-expressing GAL1R or GAL2R and β-arrestin (isoform 2) were diluted in AssayComplete™ Cell Plating Reagent, and 100 µl was seeded into each well of a 96-well plate. The plate was incubated at 37 °C, 5% CO2 in a humidified incubator. A serial 3 × dilution of the lanthipeptides in water was made (10 µM to 5 nM). After 48 h of incubation, 10 µl of the serial dilutions was applied to the cells in duplicate. The agonists were incubated for 90 min at 37 °C. Next, 55 µL of Working Detection Solution was added, and after 1 h of incubation at room temperature in the dark, the chemiluminescent signal was read with a Synergy HT Biotek reader.

The target in assay [3] is T2, GAL1R. In words: cAMP Hunter eXpress GAL1R CHO-K1 GPCR assay (inhibition of forskolin-induced cAMP). Also noted: expressed in transfected cells. Conditions: Table 3; CHO-K1 cells expressing GAL1R; 20 µM forskolin; 10 µM to 5 nM; (average) ratio, (n) in cell = number of assays; NA = ratio above 1000. How it is done:
To evaluate the ability of lanthipeptides to […] via GAL1R signaling, we used the cAMP Hunter™ eXpress GAL1R CHO-K1 GPCR Assay from Eurofins-DiscoverX. The assay was performed according to the manufacturer’s instructions. Briefly, for one assay, CHO-K1 cells expressing GAL1R were diluted in AssayComplete™ Cell Plating 2 Reagent, and 100 µl was seeded into each well of a 96-well plate. The plate was incubated at 37 °C, 5% CO2 in a humidified incubator. After 24 h of incubation, the media was aspirated, and 45 µl cell assay buffer/antibody mixture was added to all wells. […] Fifteen µl of the serial dilutions was applied in duplicates to the cells. The concentration of forskolin in the assay was 20 µM. The agonists were incubated for 30 min at 37 °C. Next, 15 µL Antibody Solution and 60 μL cAMP Working Detection Solution were added, and the plate was incubated for 1 h in the dark at room temperature. Finally, 60 μL cAMP Solution A was added and, after 3 h of incubation in the dark at room temperature, the chemiluminescent signal was read with a Synergy HT Biotek reader.

Assay [4] deals with T1, GAL2R. In words: PathHunter eXpress β-arrestin recruitment assay, GAL2R. Also noted: expressed in transfected cells. Conditions: Table 3; CHO-K1 cells co-expressing GAL2R and β-arrestin 2; 10 µM to 5 nM; (average) ratio, (n) in cell = number of assays; NA = ratio above 1000. As for the experimental part:
as §1
(In general: Arrestin recruitment assays detect the binding of arrestin to an activated receptor.)

Numbered stars: 1 amine (or outer) side, 2 acyl side, 3 side chain; on linkers, the order of the positions; unused ones are H or OH. Bridge positions count the residues as written; N and C are the ends. Square brackets hold non-standard residues; d marks the D form. Ends that are not written are not given here. Peptide text beside a SMILES is read from it. dAbu(3S-yl) = C[C@@H]([C@@H](N[*:1])C(=O)[*:2])[*:3]; pGlu = O=C1CC[C@@H](C(=O)O)N1

`CC(C)C[C@H](NC(=O)[C@H](CC(C)C)NC(=O)[C@H](Cc1ccc(O)cc1)NC(=O)CNC(=O)[C@H](C)NC(=O)[C@H](C)NC(=O)[C@H](CC(N)=O)NC(=O)[C@H](CC(C)C)NC(=O)[C@H](CC(N)=O)NC(=O)[C@H](Cc1c[nH]c2ccccc12)NC(=O)[C@@H]1CCC(=O)N1)C(=O)NCC(=O)N[C@@H](C)C(=O)N[C@H]1C(=O)N[C@@H](C)C(=O)N[C@@H](C(C)C)C(=O)N[C@H](C(=O)N[C@@H](CC(N)=O)C(=O)N[C@@H](Cc2c[nH]cn2)C(=O)N[C@@H](CCCNC(=N)N)C(=O)O)CS[C@H]1C` [Variant M54] ([pGlu]WNLNAAGYLLGA[dAbu(3S-yl)]AVCNHR-OH; thioether 14-17; C-terminus assumed): at GAL2R [1], the “EC50 ratios to Gal-(1-15), GAL2R Ca-efflux” value (“EC50 ratios … GAL2R Ca-efflux” below) is on record as 3.3 (3). Also, the “EC50 ratios to Gal-(1-15), GAL1R ß-Arrestin” value (shortened to “EC50 ratios … GAL1R ß-Arrestin”) at GAL1R [2] was 4.5 (2). Moreover, the “EC50 ratios to Gal-(1-15), GAL1R cAMP” value on GAL1R [3] is on record as 140 (2). Besides, at GAL2R [4], the “EC50 ratios to Gal-(1-15), GAL2R ß-Arrestin” value (“EC50 ratios … GAL2R ß-Arrestin” below) was 1.2 (3).
For “[pGlu]WNLNAAGYLLGATAVGCHR (also: sidechain bridge or staple (positions not given here)) [Variant M76b, pyroglutamate- and methyllanthionine-containing galanin variant]” the same measures were 1.0 (1), 9.6 (1), 12.2 (1) and 0.5 (1).
For “GWNLNAAGYLLGPHATGNCR (also: sidechain bridge or staple (positions not given here)) [Variant M74, methyllanthionine-containing galanin variant produced in L. lactis]” the same measures were 4.7 (1), 2.3 (1), 4.6 (1) and 2.6 (1).
In the case of “GWNLNAAGYLLGATAVGCHR (also: sidechain bridge or staple (positions not given here)) [Variant M76, methyllanthionine-containing galanin variant produced in L. lactis]”, the “EC50 ratios … GAL2R Ca-efflux” value at GAL2R [1] is listed as 0.9 (1). Further, at GAL1R [2], the “EC50 ratios … GAL1R ß-Arrestin” value is 1.0 (1). The “EC50 ratios to Gal-(1-15), GAL1R cAMP” value on GAL1R [3] is listed as 0.6 (1). For the same molecule, the “EC50 ratios … GAL2R ß-Arrestin” value at GAL2R [4] was 1.0 (1).
On to “GWNLNAAGYLLGPHTVGCHR (also: sidechain bridge or staple (positions not given here)) [Variant M52, methyllanthionine-containing galanin variant produced in L. lactis]”, for which the “EC50 ratios … GAL2R Ca-efflux” value at GAL2R [1] is 1.9 (1). The “EC50 ratios … GAL1R ß-Arrestin” value at GAL1R [2] is 8.3 (1). For the same molecule, the “EC50 ratios to Gal-(1-15), GAL1R cAMP” value at GAL1R [3] is given as 7.5 (2). On GAL2R [4], the “EC50 ratios … GAL2R ß-Arrestin” value is reported as 0.6 (1).
For “GWNLNAAGYLLGTHACG (also: sidechain bridge or staple (positions not given here)) [Variant M84, methyllanthionine-containing galanin variant produced in L. lactis]”, the “EC50 ratios … GAL2R Ca-efflux” value at GAL2R [1] is on record as 6.3 (1). The “EC50 ratios … GAL1R ß-Arrestin” value at GAL1R [2] is listed as 35 (1). On GAL2R [4], the “EC50 ratios … GAL2R ß-Arrestin” value is “NA (1) (NA is not active; ratios above 1000 were considered to be not active)”.
Regarding `CC(C)C[C@H](NC(=O)[C@H](CC(C)C)NC(=O)[C@H](Cc1ccc(O)cc1)NC(=O)CNC(=O)[C@H](C)NC(=O)[C@H](C)NC(=O)[C@H](CC(N)=O)NC(=O)[C@H](CC(C)C)NC(=O)[C@H](CC(N)=O)NC(=O)[C@H](Cc1c[nH]c2ccccc12)NC(=O)[C@@H]1CCC(=O)N1)C(=O)NCC(=O)N1CCC[C@H]1C(=O)N[C@@H](Cc1c[nH]cn1)C(=O)N[C@@H](C)C(=O)N[C@H]1C(=O)NCC(=O)N[C@@H](CC(N)=O)C(=O)N[C@H](C(=O)N[C@@H](CCCNC(=N)N)C(=O)O)CS[C@H]1C` [Variant M74b] ([pGlu]WNLNAAGYLLGPHA[dAbu(3S-yl)]GNCR-OH; thioether 16-19; C-terminus assumed), the “EC50 ratios … GAL2R Ca-efflux” value on GAL2R [1] is reported as 2.6 (3). For the same molecule, the “EC50 ratios … GAL1R ß-Arrestin” value on GAL1R [2] was 129 (1). Also, at GAL1R [3], the “EC50 ratios to Gal-(1-15), GAL1R cAMP” value is given as 13.3 (1). For the same molecule, the “EC50 ratios … GAL2R ß-Arrestin” value at GAL2R [4] was 4.2 (1).
As to “[pGlu]WNLNAAGYLLGATAVC (also: sidechain bridge or staple (positions not given here)) [Variant M91, pyroglutamate- and methyllanthionine-containing galanin variant]”, the “EC50 ratios … GAL2R Ca-efflux” value on GAL2R [1] is reported as 1.3 (1). Besides, on GAL1R [2], the “EC50 ratios … GAL1R ß-Arrestin” value is reported as 3 (1). In addition, the “EC50 ratios to Gal-(1-15), GAL1R cAMP” value on GAL1R [3] is “NA (1) (NA is not active; ratios above 1000 were considered to be not active)”. Moreover, the “EC50 ratios … GAL2R ß-Arrestin” value at GAL2R [4] is reported as 1.5 (1).
For “[pGlu]WNLNAAGYLLGATAVCNH (also: sidechain bridge or staple (positions not given here)) [Variant M54tr, pyroglutamate- and methyllanthionine-containing galanin variant]” the same measures were 1.2 (2), “NA (1) (NA is not active; ratios above 1000 were considered to be not active)”, 16 (1) and 1 (1).
As for “GWNLNAATYLCGPHAVGNHR (also: sidechain bridge or staple (positions not given here)) [Variant M60, methyllanthionine-containing galanin variant produced in L. lactis]”, the “EC50 ratios … GAL2R Ca-efflux” value at GAL2R [1] is 8.7 (1). For the same molecule, the “EC50 ratios to Gal-(1-15), GAL1R cAMP” value at GAL1R [3] is reported as “NA (2) (NA is not active; ratios above 1000 were considered to be not active)”. Further, the “EC50 ratios … GAL2R ß-Arrestin” value on GAL2R [4] is on record as “NA (1) (NA is not active; ratios above 1000 were considered to be not active)”.

The values above are taken from paper PMC8804135 (Neurotherapeutics, 2021).
